Assay results published in patent publication US20220040255A1, “CHEMOTHERAPEUTIC REMODELING OF THE GUT MICROBIOME” (THE SCRIPPS RESEARCH INSTITUTE, priority 2018, published 2022).
Where a SMILES comes first, the peptide text is derived from it. [ ]: non-standard residue; d: D form.

Legend:
[1] = test system: gut microbiota transcriptome; assay: bacterial RNA-seq of feces (microbiota transcriptome); assay type: in vivo, LDLr−/− mice
Description: Bacterial RNA-seq sample preparation and sequencing. Total bacterial RNA from feces samples was isolated with ZR Soil/Fecal RNA MicroPrep (Zymo research) following the manufacturer's instructions. Briefly, the sample was suspended in RNA lysis buffer and lysed by the mixer (Retsch). The supernatant was transferred to a RNA-binding column and washed several times with RNA wash buffer. In-column DNaseI digestion at 25° C. for 15 min was performed to eliminate DNA contamination in the sample. The presence of genomic DNA contamination was assessed by PCR with universal 16S rRNA gene primers. Before RNA-seq library preparation, rRNA was removed from 2 μg of total bacterial RNA with Ribo-Zero Bacteria kit (Illumina). 100 ng of purified RNA was used for RNA-seq library preparation as described previously^56. The cDNA was synthesized by reverse transcription with SuperScript III (Life technologies) and second-strand synthesis (New England Biolabs). The sequencing library was generated from purified cDNA with Nextera XT DNA library preparation kit (Illumina) and amplified by PCR. Cycling conditions were 72° C. for 3 min, 95° C. for 30 s, followed by 16 cycles of 95° C. for 10 s, 55° C. for 30 s, and 72° C. for 30 s. A condition of 72° C. for 5 min was used for the final elongation step. Libraries with different indexes were pooled and single-end sequencing (75 bp) was performed on an Illumina NextSeq at the Scripps Research Institute next generation sequencing core.
Functional analysis of bacterial RNA-seq data. We used BWA (version 0.7.12) read alignment program and a custom-built bacterial reference database, which contains 4,700 bacterial genomes from NCBI NR sequence database, to map RNA-seq reads. The reads aligned to individual bacterial genes were counted using HTSeq count (version 0.6.0) and the counts were further normalized based on size factors estimated using the median of the ratios of observed counts method as described previously (Anders et al., Genome Biol. 11, R106, 2010). The proteins predicted by RNA-seq read alignment were annotated with DIAMOND (version 0.8.26) using the NCBI nonredundant (NCBI-nr) database and the default setting (BLASTX e value <10^−3, bit score >50). For query genes with multiple matches, the annotated reference gene with the lowest e value was chosen. The functional analysis was performed by MEGAN (version 5.11.3) and KEGG analyzer was used to determine read counts in different metabolic pathways from each group. The aggregate expression level changes for sequences within a given function were normalized before the comparison between each group.

[2] = test system: bile acids; assay: bile acids in feces and plasma by targeted metabolomics; assay type: in vivo; conditions: WD-fed LDLr−/− mice, 2-wk treatment
Description: Measurement of secondary bile acids. Feces were obtained between 0900-1100 am from non-fasted animals after a 2-wk treatment period. Bile acids were extracted from samples according to published procedures (Wegner et al., Anal. Bioanal. Chem. 409, 1231-1245, 2017). Briefly, fecal samples were lyophilized and homogenized. Five milligrams of fecal powder were extracted with 250 μl of methanol containing heavy internal standards. Fifty microliters of plasma were extracted with 150 μL of methanol containing heavy internal standards. After vortexing for 10 minutes and centrifuging (16,000×g, 4 C, 10 min), supernatants were transferred to glass vials for injection and analysis by LCMS. Bile acids were analyzed on a Dionex Ultimate 3000 LC system (Thermo) coupled to a TSQ Quantiva mass spectrometer (Thermo) fitted with a Kinetex C18 reversed phase column (2.6 μm, 150×2.1 mm i.d., Phenomenex). The following LC solvents were used: solution A, 0.1% formic acid and 20 mM ammonium acetate in water, solution B, acetonitrile/methanol (3/1, v/v) containing 0.1% formic acid and 20 mM ammonium acetate. The following reversed phase gradient was utilized: at a flow rate of 0.2 mL/min with a gradient consisting of 25-29% B in 1 min, 29-33% B in 14 min, 33-70% B in 15 min, up to 100% B in 1 min, 100% B for 9 min and re-equilibrated to 25% B for 10 min, for a total run time of 50 min. The injection volume for all samples was 10 μL, the column oven temperature was set to 50° C. and the autosampler kept at 4° C. MS analyses were performed using electrospray ionization in positive and negative ion modes, with spray voltages of 3.5 and −3 kV, respectively, ion transfer tube temperature of 325° C., and vaporizer temperature of 275° C. Multiple reaction monitoring (MRM) was performed by using mass transitions between specific parent ions into corresponding fragment ions for each analyte.

[3] = test system: cytokines/chemokines in liver tissue; assay: cytokines/chemokines in liver tissue by Luminex assay; assay type: in vivo, LDLr−/− mice
Source text: Interleukin-1β (IL-1β) is a proinflammatory cytokine central to the inflammatory response […] the interlukin-6 (IL-6) signaling pathway. […] In addition to IL-1β, a pathogenic role of IL-la in vascular inflammation and atherosclerosis has been described.

[4] = liver tissue, WD-fed LDLr−/− mice, 4 weeks of treatment

CC(C)C[C@@H]1NC(=O)[C@@H](Cc2c[nH]c3ccccc23)NC(=O)[C@H](CCCNC(=N)N)NC(=O)[C@@H](CCC(=O)O)NC(=O)[C@H](CCC(N)=O)NC(=O)[C@@H](CCC(=O)O)NC(=O)[C@H](CCCNC(=N)N)NC(=O)[C@@H](Cc2c[nH]c3ccccc23)NC1=O [c[wLwReQeR]] (cyclo([dW]L[dW]R[dE]Q[dE]R))
overall gene expression from Bacteroidetes ([1]; feces, 2-week treatment): increased | overall gene expression from Firmicutes ([1]; feces, 2-week treatment): reduced | acetoacetate-CoA transferase levels compared to vehicle ([1]; microbiota transcriptome): higher | butyryl-CoA dehydrogenase levels compared to vehicle ([1]; microbiota transcriptome): lower | CA level ([2]; feces): 440 ± 490 pmol/mg feces | DCA level ([2]; feces): 4900 ± 2400 pmol/mg feces | HCA level ([2]; feces): 1.6 ± 1.1 pmol/mg feces | LCA level ([2]; feces): 400 ± 170 pmol/mg feces | T-CA level ([2]; feces): 8.3 ± 3.3 pmol/mg feces | T-DCA level ([2]; feces): 2.6 ± 1.2 pmol/mg feces | T-HCA level ([2]; feces): 0.097 ± 0.03 pmol/mg feces | T-α-MCA level ([2]; feces): 17 ± 8.7 pmol/mg feces | T-β-MCA level ([2]; feces): 20 ± 11 pmol/mg feces | T-ω-MCA level ([2]; feces): 3 ± 1.4 pmol/mg feces | UDCA level ([2]; feces): 43 ± 16 pmol/mg feces | α-MCA level ([2]; feces): 21 ± 8.9 pmol/mg feces | β-MCA level ([2]; feces): 65 ± 12 pmol/mg feces | ω-MCA level ([2]; feces): 170 ± 100 pmol/mg feces | CA level ([2]; plasma): 6300 ± 8300 pmol/mL plasma | DCA level ([2]; plasma): 2100 ± 2100 pmol/mL plasma | HCA level ([2]; plasma): 1.0 ± 0.84 pmol/mL plasma | LCA level ([2]; plasma): 100 ± 48 pmol/mL plasma | T-CA level ([2]; plasma): 16000 ± 31000 pmol/mL plasma | T-DCA level ([2]; plasma): 830 ± 1100 pmol/mL plasma | T-HCA level ([2]; plasma): 62 ± 110 pmol/mL plasma | T-α-MCA level ([2]; plasma): 1900 ± 3900 pmol/mL plasma | T-β-MCA level ([2]; plasma): 9800 ± 22000 pmol/mL plasma | T-ω-MCA level ([2]; plasma): 2400 ± 4900 pmol/mL plasma | UDCA level ([2]; plasma): 120 ± 92 pmol/mL plasma | α-MCA level ([2]; plasma): 10 ± 5.8 pmol/mL plasma | β-MCA level ([2]; plasma): 76 ± 75 pmol/mL plasma | ω-MCA level ([2]; plasma): 33 ± 11 pmol/mL plasma | several cytokine and chemokine levels, including IL-1β, IL-1α, IL-6, and TNF-α ([3]; liver tissue from WD animals, treated vs vehicle): significant reductions | CCL2 (MCP-1) level [3, 4]: 470 ± 150 pg/g tissue | CCL3 (MIP-1a) level [3, 4]: 200 ± 130 pg/g tissue | CCL4 (MIP-1b) level [3, 4]: 3000 ± 1800 pg/g tissue | CXCL10 (IP-10) level [3, 4]: 1200 ± 380 pg/g tissue | Eotaxin level [3, 4]: 1200 ± 390 pg/g tissue | G-CSF level [3, 4]: 380 ± 150 pg/g tissue | GM-CSF level [3, 4]: 86 ± 37 pg/g tissue | IFNg level [3, 4]: 37 ± 16 pg/g tissue | IL1a level [3, 4]: 1100 ± 190 pg/g tissue | IL1b level [3, 4]: 430 ± 100 pg/g tissue | IL2 level [3, 4]: 80 ± 24 pg/g tissue | IL3 level [3, 4]: 31 ± 15 pg/g tissue | IL4 level [3, 4]: 13 ± 8.4 pg/g tissue | IL6 level [3, 4]: 260 ± 55 pg/g tissue | IL7 level [3, 4]: 230 ± 110 pg/g tissue | IL9 level [3, 4]: 670 ± 160 pg/g tissue | IL10 level [3, 4]: 160 ± 58 pg/g tissue | IL13 level [3, 4]: 7.3 ± 5.9 pg/g tissue | IL-12p40 level [3, 4]: 200 ± 78 pg/g tissue | IL-12p70 level [3, 4]: 270 ± 140 pg/g tissue | IL-15 level [3, 4]: 960 ± 370 pg/g tissue | IL-17 level [3, 4]: 55 ± 16 pg/g tissue | KC level [3, 4]: 190 ± 20 pg/g tissue | LIF level [3, 4]: 7.1 ± 4 pg/g tissue | LIX level [3, 4]: 290 ± 240 pg/g tissue | M-CSF level [3, 4]: 200 ± 70 pg/g tissue | MIG level [3, 4]: 1200 ± 650 pg/g tissue | RANTES level [3, 4]: 71 ± 61 pg/g tissue | TNFa level [3, 4]: 77 ± 21 pg/g tissue | VEGF level [3, 4]: 8.2 ± 3.4 pg/g tissue
